According to patent US10130096B2, “Method for protecting useful plants or plant propagation material” (SYNGENTA PARTICIPATIONS AG, priority 2011, dated 2018):

Experiments:
Format in all cases: cell-based
[1] = test system: Pythium ultimum; test: Pythium ultimum liquid culture growth inhibition; details: Globisporangium ultimum, photometric, 2-3 days after application, read-out: control on Pythium ultimum
Description: Mycelia fragments and oospores of a newly grown liquid culture of the fungus are directly mixed into nutrient broth (PDB potato dextrose broth). After placing a (DMSO) solution of test compound into a microtiter plate (96-well format), the nutrient broth containing the fungal mycelia/spore mixture is added.

[2] = test system: Botryotinia fuckeliana (Botrytis cinerea); test: Botryotinia fuckeliana liquid culture growth inhibition; details: photometric, 3-4 days after application, read-out: control on Botryotinia fuckeliana
Description: Conidia of the fungus from cryogenic storage are directly mixed into nutrient broth (Vogels broth). After placing a (DMSO) solution of test compound into a microtiter plate (96-well format), the nutrient broth containing the fungal spores is added.

[3] = test system: Glomerella lagenarium (Colletotrichum lagenarium); test: Glomerella lagenarium liquid culture growth inhibition; details: Colletotrichum orbiculare, photometric, 3-4 days after application, read-out: control on Glomerella lagenarium
Description: (§1) Conidia of the fungus from cryogenic storage are directly mixed into nutrient broth (PDB potato dextrose broth). After placing a (DMSO) solution of test compound into a microtiter plate (96-well format), the nutrient broth containing the fungal spores is added.

[4] = test system: Monographella nivalis (Microdochium nivale); test: Monographella nivalis liquid culture growth inhibition; details: photometric, 4-5 days after application, read-out: control on Monographella nivalis
Description: Conidia of the fungus from cryogenic storage are directly mixed into nutrient broth (PDB potato dextrose broth). After placing a (DMSO) solution of test compound into a microtiter plate (96-well format), the nutrient broth containing the fungal spores is added. The test plates are incubated at 24° C. and the inhibition of growth is determined photometrically 4-5 days after application.

[5] = test system: Mycosphaerella arachidis (Cercospora arachidicola); test: Mycosphaerella arachidis liquid culture growth inhibition; details: photometric, 4-5 days after application, read-out: control on Mycosphaerella arachidis
Description: as §1

[6] = test system: Thanatephorus cucumeris (Rhizoctonia solani); test: Thanatephorus cucumeris liquid culture growth inhibition; details: photometric, 3-4 days after application, read-out: control on Thanatephorus cucumeris
Description: Mycelia fragments of a newly grown liquid culture of the fungus are directly mixed into nutrient broth (PDB potato dextrose broth). After placing a (DMSO) solution of the test compounds into a microtiter plate (96-well format), the nutrient broth containing the fungal material is added. The test plates are incubated at 24° C. and the inhibition of growth is determined photometrically 3-4 days after application.

[7] = test system: Fusarium culmorum; test: Fusarium culmorum liquid culture growth inhibition; details: photometric, 3-4 days after application, read-out: control on Fusarium culmorum
Description: Conidia of the fungus from cryogenic storage are directly mixed into nutrient broth (PDB potato dextrose broth). After placing a (DMSO) solution of test compound into a microtiter plate (96-well format), the nutrient broth containing the fungal spores is added. The test plates are incubated at 24° C. and the inhibition of growth is determined photometrically 3-4 days after application.

Measured: inhibition of growth at 200 ppm

OB1OCc2ccc(Cl)cc21 [Compound 6, 6-Chloro-3H-benzo[c][1,2]oxaborol-1-ol]
≥ 80%: all assays above

OB1OCc2c1ccc1ccccc21 [Compound 16, 1H-2-Oxa-3-bora-cyclopenta[a]naphthalen-3-ol]
≥ 80%: [2] | [3] | [4] | [5]

OB1OC(c2ccccc2)c2ccccc21 (stereo not shown) [Compound 19, 3-Phenyl-3H-benzo[c][1,2]oxaborol-1-ol]
≥ 80%: [1] | [3] | [4] | [5]

N[C@@H](COB1OCc2cc(Cl)ccc21)c1ccccc1 [Compound 23, (R)-2-(5-Chloro-3H-benzo[c][1,2]oxaborol-1-yloxy)-1-phenyl-ethylamine]
not listed: [6]
≥ 80%: all other assays above

N[C@H](COB1OCc2cc(Cl)ccc21)c1ccccc1 [Compound 25, (S)-2-(5-Chloro-3H-benzo[c][1,2]oxaborol-1-yloxy)-1-phenyl-ethylamine]
not listed: [6]
≥ 80%: all other assays above

c1ccc2c(c1)COB2Oc1cccc2cccnc12 [Compound 31, 8-(3H-Benzo[c][1,2]oxaborol-1-yloxy)-quinoline]
not listed: [6]
≥ 80%: all other assays above

CC(C)(N)COB1OCc2ccccc21 [Compound 32, 2-(3H-Benzo[c][1,2]oxaborol-1-yloxy)-1,1-dimethyl-ethylamine]
not listed: [6]
≥ 80%: all other assays above

CC(C)(C)c1ccc2c(c1)COB2OCCN [Compound 33, 2-(5-tert-Butyl-3H-benzo[c][1,2]oxaborol-1-yloxy)-ethylamine]
≥ 80%: [5]

CC(C)(C)c1ccc2c(c1)COB2O [Compound 34, 5-tert-Butyl-3H-benzo[c][1,2]oxaborol-1-ol]
≥ 80%: [3] | [4] | [5]

NCCOB1OCc2cc(Oc3ccccc3)ccc21 [Compound 35, 2-(5-Phenoxy-3H-benzo[c][1,2]oxaborol-1-yloxy)-ethylamine]
≥ 80%: [3] | [4] | [5]
